Measured values: publication PMC5331433, “Ustiloxin G, a New Cyclopeptide Mycotoxin from Rice False Smut Balls” (Toxins, 2017)

Experiments:
HCT116 = experiment: Cytotoxicity, MTT assay, HCT116; type: cell-based, human; conditions: 24 h treatment, absorbance 570 nm, three replicates
Description: (§1) Cytotoxicity of the compounds were tested against human carcinoma cells using the microculture methyl-thiazolyl-tetrazolium (MTT) assay as described previously. Briefly, the cell lines were maintained in a humidified atmosphere containing 5% CO2 at 37 °C. For preparing working solution, 1 μmol of each purified ustiloxin was dissolved in 10 mL of ultrapure water to obtain the stock solution (100 μM), which was further diluted to a series of concentrations (50, 25, 12.5, 6.25, 3.125, 1, 0.1, 1 × 10^−2, 1 × 10^−3, 1 × 10^−4, 1 × 10^−5 μM) with ultrapure water. Normally, 200 μL of the cell suspensions (5 × 10^4 cells/mL) was plated in 96-well culture plates at 37 °C. After 12 h, 20 μL of working solution was added to each well respectively and cultured at 37 °C for 24 h. Then, MTT was dissolved in saline to 5 mg/mL, and 20 μL of this solution was added to each well. After 4 h, the medium was removed, and then 100 μL of DMSO was added to dissolve any formazan crystals formed. Absorbance was then determined at 570 nm. The cell lines of colon cancer cells (HCT-116), non-small-cell lung carcinoma cells (NCI-H1650), gastric cancer cells (BGC-823), and liver hepatocellular carcinoma cells (HepG2) were tested for all isolated compounds. In addition, lung adenocarcinoma cells (A549) were tested on ustiloxins A (2), B (3), and G (1), and melanoma cells (A375) were tested on ustiloxin G (1). Ultrapure water and taxol were used as the negative and positive controls, respectively. All experiments were performed with three replicates.

NCI-H1650 = experiment: Cytotoxicity, MTT assay, NCI-H1650; type: cell-based, human; conditions: 24 h treatment, absorbance 570 nm, three replicates
Description: as §1

BGC-823 = experiment: Cytotoxicity, MTT assay, BGC-823; type: cell-based, human; conditions: 24 h treatment, absorbance 570 nm, three replicates
Description: as §1

HepG2 = experiment: Cytotoxicity, MTT assay, HepG2; type: cell-based, human; conditions: 24 h treatment, absorbance 570 nm, three replicates
Description: as §1

A549 = experiment: Cytotoxicity, MTT assay, A549; type: cell-based, human; conditions: 24 h treatment, absorbance 570 nm, three replicates
Description: as §1

A375 = experiment: Cytotoxicity, MTT assay, A375; type: cell-based, human; conditions: 24 h treatment, absorbance 570 nm, three replicates
Description: as §1, with “Ultrapure water and taxol were used as the negative and positive controls, respectively. All experiments were performed with three replicates.” left out

[1] = system: rice (Oryza sativa) seeds, radicle; experiment: Inhibition of radicle elongation of rice seeds; conditions: 48 h, 25 °C, dark, mean of triplicate ± SD
Description: (§2) Phytotoxicity of the compounds was evaluated by their inhibitory activities on the radicle and germ elongation of rice (Oryza sativa) seeds. Two varieties (Lijiang and Zhonghua 11) of the seeds, which were obtained from Prof. Zejian Guo (Department of Plant Pathology and collected in 2015, China Agricultural University) were used.
(§3) The bioassay was performed using the method described previously with some modifications. Briefly, five 3-day germinated rice seeds of each rice variety were sown onto each well of a 24-well plate, containing 200 μL of working solution. For preparing working solution, 1 mg of each purified compound was dissolved in 1 mL of ultrapure water to obtain the stock solution (1 mg/mL), which was further diluted to a series of concentrations (200, 100, 50, 20, and 10 μg/mL) with ultrapure water. The ultrapure water was used as the negative control, and glyphosate (N-(phosphonomethyl)glycine) at the same concentrations as the positive control. Plates were incubated in a moist chamber at 25 °C in the dark. The length of each radicle or germ was measured after treatment for 48 h. The inhibition of radicle or germ elongation was calculated as follows: Inhibition (%) = [(Lc − Lt)/Lc] × 100, where Lc is the radicle or germ length of the control group, and Lt is the length of the treated group.
(§4) All experiments were performed with three replicates, and the results were represented by their mean values and the standard deviations (SD). The data were carried out using analysis of variance (one-way ANOVA) to detect significant differences by PROC ANOVA of SAS version 8.2.

[2] = system: rice (Oryza sativa) seeds, germ; experiment: Inhibition of germ elongation of rice seeds; conditions: 48 h, 25 °C, dark, mean of triplicate ± SD
Description: as §2, §3, §4

rice seedlings = experiment: Abnormal swelling of roots and germs of rice seedlings; design: species or system Oryza sativa; conditions: observation in words; Figure 3B shows 200 µg/mL of ustiloxin G, variety Lijiang
Description: as §3

**Q.** How did the IC50 (HCT116; colon cancer cells) turn out when `CC[C@@]1(C)Oc2cc(c([S+]([O-])CCO)cc2O)[C@@H](O)[C@H](NC)C(=O)N[C@@H](C(C)C)C(=O)N[C@@H]1C(=O)NCC(=O)O` (stereo partly drawn) [Ustiloxin G (1), ustiloxin G] was run?
**A.** > 50000 nM

**Q.** What about the IC50 (NCI-H1650; non-small-cell lung carcinoma cells) of the same compound?
**A.** > 50000 nM

**Q.** What about the IC50 (BGC-823; gastric cancer cells) of the same compound?
**A.** > 50000 nM

**Q.** What about the IC50 (HepG2; liver hepatocellular carcinoma cells) of the same compound?
**A.** > 50000 nM

**Q.** And the IC50 (A549; lung adenocarcinoma cells)?
**A.** 36500 nM

**Q.** And the IC50 (A375; melanoma cells)?
**A.** 22500 nM

**Q.** And the “Inhibition Ratio (%) Seed Radicle Var. Lijiang” value ([1]; 10 µg/mL)?
**A.** 12.56%

**Q.** What about the “Inhibition Ratio (%) Seed Radicle Var. Zhonghua 11” value ([1]; 10 µg/mL) of the same compound?
**A.** 27.27%

**Q.** And the “Inhibition Ratio (%) Seed Radicle Var. Lijiang” value ([1]; 20 µg/mL)?
**A.** 17.00%

**Q.** And the “Inhibition Ratio (%) Seed Radicle Var. Zhonghua 11” value ([1]; 20 µg/mL)?
**A.** 31.67%

**Q.** And the “Inhibition Ratio (%) Seed Radicle Var. Lijiang” value ([1]; 50 µg/mL)?
**A.** 37.64 ± 1.21 g %

**Q.** And the “Inhibition Ratio (%) Seed Radicle Var. Zhonghua 11” value ([1]; 50 µg/mL)?
**A.** 54.14 ± 4.20 d %

**Q.** And the “Inhibition Ratio (%) Seed Radicle Var. Lijiang” value ([1]; 100 µg/mL)?
**A.** 90.33%

**Q.** And the “Inhibition Ratio (%) Seed Radicle Var. Zhonghua 11” value ([1]; 100 µg/mL)?
**A.** 90.16 ± 3.62 a %

**Q.** And the “Inhibition Ratio (%) Seed Radicle Var. Lijiang” value ([1]; 200 µg/mL)?
**A.** 95.19 ± 1.92 a %

**Q.** And the “Inhibition Ratio (%) Seed Radicle Var. Zhonghua 11” value ([1]; 200 µg/mL)?
**A.** 93.40 ± 1.91 a %

**Q.** What about the “Inhibition Ratio (%) Seed Germ Var. Lijiang” value ([2]; 10 µg/mL) of the same compound?
**A.** 2.74 ± 4.76 l %

**Q.** And the “Inhibition Ratio (%) Seed Germ Var. Zhonghua 11” value ([2]; 10 µg/mL)?
**A.** 14.11%

**Q.** What about the “Inhibition Ratio (%) Seed Germ Var. Lijiang” value ([2]; 20 µg/mL) of the same compound?
**A.** 8.89%

**Q.** And the “Inhibition Ratio (%) Seed Germ Var. Zhonghua 11” value ([2]; 20 µg/mL)?
**A.** 14.68%

**Q.** And the “Inhibition Ratio (%) Seed Germ Var. Lijiang” value ([2]; 50 µg/mL)?
**A.** 27.96 ± 3.32 f %

**Q.** And the “Inhibition Ratio (%) Seed Germ Var. Zhonghua 11” value ([2]; 50 µg/mL)?
**A.** 36.29%

**Q.** And the “Inhibition Ratio (%) Seed Germ Var. Lijiang” value ([2]; 100 µg/mL)?
**A.** 36.95 ± 5.23 e %

**Q.** What about the “Inhibition Ratio (%) Seed Germ Var. Zhonghua 11” value ([2]; 100 µg/mL) of the same compound?
**A.** 39.33%

**Q.** And the “Inhibition Ratio (%) Seed Germ Var. Lijiang” value ([2]; 200 µg/mL)?
**A.** 65.01%

**Q.** And the “Inhibition Ratio (%) Seed Germ Var. Zhonghua 11” value ([2]; 200 µg/mL)?
**A.** 50.45%

**Q.** And the “abnormal swelling of the roots and germs of rice seedlings” value (rice seedlings)?
**A.** abnormal swelling

**Q.** With `CC(=O)O[C@H]1C(=O)[C@@]2(C)[C@H]([C@H](OC(=O)c3ccccc3)[C@]3(O)C[C@H](OC(=O)[C@H](O)[C@@H](NC(=O)c4ccccc4)c4ccccc4)C(C)=C1C3(C)C)[C@]1(OC(C)=O)CO[C@@H]1C[C@@H]2O` [Taxol, reference compound] as the compound, how does the IC50 (HCT116; Homo sapiens, HCT-116, colon cancer cells) read?
**A.** 1.9 nM

**Q.** What about the IC50 (NCI-H1650; Homo sapiens, NCI-H1650, non-small-cell lung carcinoma cells) of the same compound?
**A.** 1100 nM

**Q.** And the IC50 (BGC-823; Homo sapiens, BGC-823, gastric cancer cells)?
**A.** 0.107 nM

**Q.** And the IC50 (HepG2; Homo sapiens, HepG2, liver hepatocellular carcinoma cells)?
**A.** 14.6 nM

**Q.** What about the IC50 (A549; Homo sapiens, A549, lung adenocarcinoma cells) of the same compound?
**A.** 23 nM

**Q.** And the IC50 (A375; Homo sapiens, A-375, melanoma cells)?
**A.** 22 nM
